In assay [1] the target is T1, TLR6 (Homo sapiens, UniProt Q9Y2C9, P680H).
T1 construct: expressed in transfected cells; host or cells: THP-1 (pIRES vector)
Kind of assay: TNF-α production by THP-1 cells transfected with TLR6DN vs vector control. Format: cell-based. The source says: The human TLR6 dominant negative construct was generated from human PBMC cDNA using the same strategy as the murine TLR6 dominant negative. The proline to histidine mutation for human TLR6 was introduced at amino acid 680 along with an Apa LI restriction enzyme site (5′ sense: SEQ ID NO 5; 5′ antisense: SEQ ID NO 6; 3′ sense: SEQ ID NO 7; 3′ antisense: SEQ ID NO 8).
(§1) The amplified 5′ and 3′ sections of each human dominant negative TLR was inserted into pCR-Blunt II-TOPO for sequence verification. The 5′ and 3′ sections were joined together when subcloned into pIRES (Clontech, Palo Alto, Calif.) for expression in mammalian cells.
(§2) THP-1 cells (maintained at cell number less than 1×10^6 cells/ml) were co-transfected with the plamid vector containing either the TLR6DN or TLR7DN construct and with a murine H2K^k plasmid (Miltenyi Biotec Inc., Auburn, Calif.) in a 4:1 ratio of TLR plasmid to H2K^k plasmid. Transfection of THP-1 cells was carried out using the transfection reagent FuGENE 6 (Roche Diagnostics Corp., Indianapolis, Ind.) according to the manufacturer's specifications. […]
(§3) TNF-α levels were measured with a commercial Human TNF-α ELISA kit (Biosource International, Inc., Camarillo, Calif.) according to the manufacturer's specifications. […]

Assay [2] concerns the target T2, TLR7 (Mus musculus, UniProt P58681).
T2 construct: expressed in transfected cells; host or cells: RAW 264.7 (pIRES vector)
T2 sequence (P58681 27-1050): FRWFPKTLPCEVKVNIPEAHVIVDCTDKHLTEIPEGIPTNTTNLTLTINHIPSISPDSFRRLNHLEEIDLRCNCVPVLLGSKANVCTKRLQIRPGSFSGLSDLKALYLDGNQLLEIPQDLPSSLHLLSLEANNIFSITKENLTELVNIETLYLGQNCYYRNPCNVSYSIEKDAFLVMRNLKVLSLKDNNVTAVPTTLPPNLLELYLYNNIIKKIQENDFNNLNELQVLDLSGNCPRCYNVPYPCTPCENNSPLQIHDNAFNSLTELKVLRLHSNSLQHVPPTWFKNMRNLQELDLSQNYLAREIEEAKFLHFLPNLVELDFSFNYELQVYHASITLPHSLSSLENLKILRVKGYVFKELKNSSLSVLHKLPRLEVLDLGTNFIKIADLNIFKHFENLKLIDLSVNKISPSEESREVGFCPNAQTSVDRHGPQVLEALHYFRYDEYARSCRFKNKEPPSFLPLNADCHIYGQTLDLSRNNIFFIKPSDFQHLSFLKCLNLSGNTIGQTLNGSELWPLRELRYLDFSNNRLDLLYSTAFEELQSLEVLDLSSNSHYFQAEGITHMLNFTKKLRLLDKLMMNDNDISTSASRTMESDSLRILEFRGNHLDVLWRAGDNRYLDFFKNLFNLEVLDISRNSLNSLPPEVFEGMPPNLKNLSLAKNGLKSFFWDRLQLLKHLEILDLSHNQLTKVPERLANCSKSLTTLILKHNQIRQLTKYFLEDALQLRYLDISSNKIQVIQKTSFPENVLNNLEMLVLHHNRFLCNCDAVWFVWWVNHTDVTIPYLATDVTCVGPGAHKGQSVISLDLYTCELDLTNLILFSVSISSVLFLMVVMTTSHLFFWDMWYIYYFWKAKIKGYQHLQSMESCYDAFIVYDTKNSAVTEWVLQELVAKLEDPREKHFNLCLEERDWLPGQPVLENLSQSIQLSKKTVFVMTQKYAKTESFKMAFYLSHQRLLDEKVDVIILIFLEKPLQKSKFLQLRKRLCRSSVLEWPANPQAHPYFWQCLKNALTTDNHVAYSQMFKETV
Nature of the assay: IRM-stimulated TNF-α production by RAW 264.7 cells overexpressing TLR7. In kind it is cell-based, murine. The source says:
The murine TLR wild-type vectors were generated by PCR amplification from RAW 264.7 cell cDNA with TLR6 specific primers (sense primer: SEQ ID NO 13; antisense primer: SEQ ID NO 14) or TLR7 specific primers (sense primer: SEQ ID NO 15; antisense primer: SEQ ID NO 16) by Pfu Turbo DNA polymerase kit (Stratagene, La Jolla, Calif.). The PCR products were inserted into pCR-Blunt II-TOPO for sequence verification and then subcloned into pIRES (BD Biosciences Clontech, Palo Alto, Calif.) for expression in mammalian cells.
THP-1 cells or RAW 264.7 cells were cultured and transfected with the wild type TLR 6 or wild type TLR 7 plasmids described above. The transfections were performed as in Example 1 with a 4:1 ratio of wild-type TLR to H2K plasmid (THP-1 cells) or CD4 (RAW 264.7 cells).
RAW 264.7 cells were stimulated with various concentrations of resiquimod and analyzed as described in Example 1. Results are provided in Table 4 and are expressed as fold increase in TNF-α production as compared to control transfected RAW 264.7 cells.

For assay [3], the system named is TLR7. Nature of the assay: TNF-α production by THP-1 cells transfected with TLR7DN vs vector control. In kind it is cell-based, human.
Text: The human TLR7 dominant negative construct was generated in a manner similar to that used to generate the human TLR6 dominant negative construct. The proline to histidine mutation for human was introduced at amino acid 932 along with a Bam HI restriction enzyme site (5′ sense: SEQ ID NO 9; 5′ antisense: SEQ ID NO 10; 3′ sense: SEQ ID NO 11; 3′ antisense: SEQ ID NO 12).
as §1, §2, §3

[4] abbreviates: stimulus 3 μM, 18 hours, relative to vector control.

T1 sequence (Q9Y2C9 32-796 P680H): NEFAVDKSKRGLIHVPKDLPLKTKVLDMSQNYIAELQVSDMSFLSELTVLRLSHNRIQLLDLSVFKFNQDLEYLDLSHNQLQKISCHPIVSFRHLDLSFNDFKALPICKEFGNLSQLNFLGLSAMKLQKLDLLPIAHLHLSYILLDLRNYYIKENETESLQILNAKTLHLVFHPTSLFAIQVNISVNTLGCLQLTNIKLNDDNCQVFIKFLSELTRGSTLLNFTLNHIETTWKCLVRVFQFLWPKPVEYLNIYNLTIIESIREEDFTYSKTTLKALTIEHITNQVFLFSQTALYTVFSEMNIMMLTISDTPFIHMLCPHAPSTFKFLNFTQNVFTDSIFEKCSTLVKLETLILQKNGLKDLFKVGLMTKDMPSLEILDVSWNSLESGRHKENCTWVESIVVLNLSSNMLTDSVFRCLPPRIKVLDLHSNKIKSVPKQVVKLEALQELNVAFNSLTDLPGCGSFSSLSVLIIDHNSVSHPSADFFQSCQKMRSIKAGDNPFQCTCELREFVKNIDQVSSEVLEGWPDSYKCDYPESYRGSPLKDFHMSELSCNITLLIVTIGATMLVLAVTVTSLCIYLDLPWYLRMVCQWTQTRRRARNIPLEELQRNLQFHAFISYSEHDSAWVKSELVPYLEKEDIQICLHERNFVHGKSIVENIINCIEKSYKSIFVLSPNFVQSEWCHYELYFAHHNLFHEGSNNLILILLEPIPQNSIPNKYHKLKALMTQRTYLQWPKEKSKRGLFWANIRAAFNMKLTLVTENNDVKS
T1 sequence (O60603 19-784 partner limits assumed): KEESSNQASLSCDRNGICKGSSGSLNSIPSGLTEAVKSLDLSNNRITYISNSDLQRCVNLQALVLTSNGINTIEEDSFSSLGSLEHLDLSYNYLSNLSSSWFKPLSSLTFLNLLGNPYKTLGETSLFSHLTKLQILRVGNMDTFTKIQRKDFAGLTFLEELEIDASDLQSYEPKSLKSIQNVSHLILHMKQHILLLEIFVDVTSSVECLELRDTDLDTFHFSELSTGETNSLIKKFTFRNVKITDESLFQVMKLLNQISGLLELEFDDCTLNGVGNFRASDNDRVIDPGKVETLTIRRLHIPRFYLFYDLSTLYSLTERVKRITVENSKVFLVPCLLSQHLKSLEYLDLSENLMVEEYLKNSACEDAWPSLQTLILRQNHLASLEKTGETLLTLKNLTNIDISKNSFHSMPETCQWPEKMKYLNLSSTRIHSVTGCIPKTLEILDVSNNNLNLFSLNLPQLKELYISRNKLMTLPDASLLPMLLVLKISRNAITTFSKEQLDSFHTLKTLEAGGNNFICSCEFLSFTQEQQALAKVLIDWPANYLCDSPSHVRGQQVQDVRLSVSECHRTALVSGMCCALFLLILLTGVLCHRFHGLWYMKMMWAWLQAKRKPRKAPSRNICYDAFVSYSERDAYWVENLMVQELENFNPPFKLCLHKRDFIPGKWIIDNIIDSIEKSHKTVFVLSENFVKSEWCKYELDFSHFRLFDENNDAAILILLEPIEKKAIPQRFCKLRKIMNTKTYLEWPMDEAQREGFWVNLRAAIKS

With `CCOCc1nc2c(N)nc3ccccc3c2n1CC(C)(C)O` [Resiquimod, 4-amino-2-ethoxymethyl-α,α-dimethyl-1H-imidazo[4,5-c]quinoline-1-ethanol], the “Effect of TLR6DN on stimulus-induced TNF-α production (in words)” value in assay [1] (compared to control vector) is “inhibited”. Besides, the “TLR6DN % inhibition of TNF-α production” value in assay [1] (setting [4]) is on record as 70.1%. Besides, the “Fold increase in TNF-α production over control, TLR7” value in assay [2] (RAW 264.7 overexpressing TLR7, 0.0004 μM) is given as 14.8 fold; in assay [2] (RAW 264.7 overexpressing TLR7, 0.001 μM), 8.9 fold; in assay [2] (RAW 264.7 overexpressing TLR7, 0.004 μM), 5.8 fold; in assay [2] (RAW 264.7 overexpressing TLR7, 0.012 μM), 3.8 fold; in assay [2] (RAW 264.7 overexpressing TLR7, 0.037 μM) it was 3.5 fold; in assay [2] (RAW 264.7 overexpressing TLR7, 1 μM) it was 1.3 fold. In addition, the “Fold increase in TNF-α production over control, TLR7” value in assay [2] (RAW 264.7 overexpressing TLR7, 3 μM) came out at 1.0 fold; in assay [2] (RAW 264.7 overexpressing TLR7, 10 μM), 1.5 fold. Further, the “TLR7 agonist character (in words)” value in assay [2] (from TLR7 overexpression in RAW 264.7 cells) is reported as “agonist”. The “Effect of TLR7DN on stimulus-induced TNF-α production (in words)” value in assay [3] (compared to control vector) is on record as “inhibited”. Further, in assay [3] (setting [4]), the “TLR7DN % inhibition of TNF-α production” value is 55.3%.

The record behind these values is US20040014779A1, “Methods and compositions related to IRM compounds and toll-like recptor pathways” (3M Innovative Properties Company, priority 2001, published 2004).
